Test results: patent US20130065757A1, “CHEMICAL COMPOUNDS” (Syngenta Limited, priority 2010, published 2013)

Columns and labels:
Type in all cases: in vivo
[1] = system: Ipomoea hederaceae (IPOHE); assay: Pre-emergence biological efficacy, glasshouse pot test; settings: 312 h, 1,000 g/ha, evaluated after 13 days, 100=total damage, 0=no damage, read-out: Percentage damage caused to weed species, pre-emergence, IPOHE
Method: (§1) Seeds of Alopecurus myosuroides (ALOMY), Setaria faberi (SETFA), Echinochloa crus-galli (ECHCG), Solanum nigrum (SOLNI), Amaranthus retroflexus (AMARE) and Ipomoea hederaceae (IPOHE) were sown in standard soil in pots. After cultivation for one day under controlled conditions in a glasshouse (at 24/16° C., day/night; 14 hours light; 65% humidity), the plants were sprayed with an aqueous spray solution derived from the formulation of the technical active ingredient in acetone/water (50:50) solution containing 0.5% Tween 20 (polyoxyethylene sorbitan monolaurate, CAS RN 9005-64-5) to give a final dose of 1000 g/ha of test compound.
(§2) The test plants were then grown under controlled conditions in the glasshouse (at 24/16° C., day/night; 14 hours light; 65% humidity) and watered twice daily. After 13 days the test was evaluated (100=total damage to plant; 0=no damage to plant).

Setaria faberi (SETFA) [2] = assay: as above; settings: 312 h, 1,000 g/ha, evaluated after 13 days, 100=total damage, 0=no damage, read-out: Percentage damage caused to weed species, pre-emergence, SETFA
Method: as §1, §2

[3] = system: Echinochloa crus-galli (ECHCG); assay: as above; settings: 312 h, 1,000 g/ha, evaluated after 13 days, 100=total damage, 0=no damage, read-out: Percentage damage caused to weed species, pre-emergence, ECHCG
Method: as §1, §2

Solanum nigrum (SOLNI) [4] = assay: as above; settings: 312 h, 1,000 g/ha, evaluated after 13 days, 100=total damage, 0=no damage, read-out: Percentage damage caused to weed species, pre-emergence, SOLNI
Method: as §1, §2

[5] = system: Amaranthus retroflexus (AMARE); assay: as above; settings: 312 h, 1,000 g/ha, evaluated after 13 days, 100=total damage, 0=no damage, read-out: Percentage damage caused to weed species, pre-emergence, AMARE
Method: as §1, §2

[6] = system: Alopecurus myosuroides (ALOMY); assay: as above; settings: 312 h, 1,000 g/ha, evaluated after 13 days, 100=total damage, 0=no damage, read-out: Percentage damage caused to weed species, pre-emergence, ALOMY
Method: as §1, §2

[7] = system: Ipomoea hederaceae (IPOHE); assay: Post-emergence biological efficacy, glasshouse pot test; settings: 312 h, 1,000 g/ha, post-emergence (sprayed after 8 days), evaluated after 13 days, 100=total damage, 0=no damage, read-out: Percentage damage caused to weed species, post-emergence, IPOHE
Method: as §1, with “8 days” for “one day”
(§3) The test plants were then grown on under controlled conditions in a glasshouse (at 24/16° C., day/night; 14 hours light; 65% humidity) and watered twice daily. After 13 days the test was evaluated (100=total damage to plant; 0=no damage to plant).

Setaria faberi (SETFA) [8] = assay: as above; settings: 312 h, 1,000 g/ha, post-emergence (sprayed after 8 days), evaluated after 13 days, 100=total damage, 0=no damage, read-out: Percentage damage caused to weed species, post-emergence, SETFA
Method: as §1, with “8 days” for “one day”
as §3

[9] = system: Echinochloa crus-galli (ECHCG); assay: as above; settings: 312 h, 1,000 g/ha, post-emergence (sprayed after 8 days), evaluated after 13 days, 100=total damage, 0=no damage, read-out: Percentage damage caused to weed species, post-emergence, ECHCG
Method: as §1, with “8 days” for “one day”
as §3

Solanum nigrum (SOLNI) [10] = assay: as above; settings: 312 h, 1,000 g/ha, post-emergence (sprayed after 8 days), evaluated after 13 days, 100=total damage, 0=no damage, read-out: Percentage damage caused to weed species, post-emergence, SOLNI
Method: as §1, with “8 days” for “one day”
as §3

[11] = system: Amaranthus retroflexus (AMARE); assay: as above; settings: 312 h, 1,000 g/ha, post-emergence (sprayed after 8 days), evaluated after 13 days, 100=total damage, 0=no damage, read-out: Percentage damage caused to weed species, post-emergence, AMARE
Method: as §1, with “8 days” for “one day”
as §3

[12] = system: Alopecurus myosuroides (ALOMY); assay: as above; settings: 312 h, 1,000 g/ha, post-emergence (sprayed after 8 days), evaluated after 13 days, 100=total damage, 0=no damage, read-out: Percentage damage caused to weed species, post-emergence, ALOMY
Method: as §1, with “8 days” for “one day”
as §3

SMILES	pest or weed control at 1000 g/ha [1]	pest or weed control at 1000 g/ha (Setaria faberi (SETFA) [2])	pest or weed control at 1000 g/ha [3]	pest or weed control at 1000 g/ha (Solanum nigrum (SOLNI) [4])	pest or weed control at 1000 g/ha [5]	pest or weed control at 1000 g/ha [6]	pest or weed control at 1000 g/ha [7]	pest or weed control at 1000 g/ha (Setaria faberi (SETFA) [8])	pest or weed control at 1000 g/ha [9]	pest or weed control at 1000 g/ha (Solanum nigrum (SOLNI) [10])	pest or weed control at 1000 g/ha [11]	pest or weed control at 1000 g/ha [12]
C=Cc1c(NCC(C)O)cc(Cl)nc1C(=O)OC (stereo not drawn) [Compound 21-4, 6-Chloro-3-ethenyl-4-(2-hydroxypropylamino)-pyridine-2-carboxylic acid methyl ester]	80%	90%	90%	100%	100%	90%	50%	80%	80%	100%	100%	70%
C=C(C)Cc1c(N)cc(Cl)nc1C(=O)OC [Compound 2-8, 4-amino-6-chloro-3-(2-methyl-prop-2-enyl)-pyridine-2-carboxylic acid methyl ester]	80%	10%	0%	80%	40%	10%	50%	10%	0%	80%	70%	10%
C/C=C\c1c(N)cc(Cl)nc1C(=O)OC [2-5 (Z isomer), (Z)-4-Amino-6-chloro-3-(prop-1-enyl)-pyridine-2-carboxylic acid methyl ester]	90%	100%	70%	100%	100%	90%	50%	80%	60%	100%	100%	50%
C=CCc1c(N)cc(Cl)nc1C(=O)OC [Compound 2-7, 4-amino-6-chloro-3-(prop-2-enyl)-pyridine-2-carboxylic acid methyl ester]	70%	40%	40%	90%	90%	30%	50%	30%	10%	90%	90%	20%
C=Cc1c(C(=O)OC)nc(Cl)c(Cl)c1N [Compound 2-20, 4-amino-5,6-dichloro-3-ethenyl-1-pyridine-2-carboxylic acid methyl ester]	100%	90%	90%	100%	100%	90%	100%	90%	90%	100%	100%	90%
COC(=O)c1nc(Cl)cc(N)c1C=C(C)C [Compound 2-165, 4-Amino-6-chloro-3-(2-methylprop-1-enyl)-pyridine-2-carboxylic acid methyl ester]	90%	90%	70%	100%	100%	80%	70%	90%	70%	90%	100%	70%
C=Cc1c(C(=O)O)nc(Cl)c(Cl)c1N [Compound 1-20, 4-Amino-5,6-dichloro-3-ethenyl-pyridine-2-carboxylic acid]	100%	90%	90%	100%	100%	90%	100%	90%	90%	90%	100%	90%
COC(=O)c1nc(Cl)cc(N)c1C(F)(F)F [Compound 2-2, 4-amino-6-chloro-3-trifluoromethyl-pyridine-2-carboxylic acid methyl ester]	90%	0%	10%	80%	80%	20%	70%	10%	10%	80%	80%	10%
C=Cc1c(N)cc(Cl)nc1C(=O)OC [Compound 2-4, 4-amino-6-chloro-3-ethenyl-pyridine-2-carboxylic acid methyl ester]	100%	90%	90%	100%	100%	90%	80%	100%	80%	100%	100%	90%
C=Cc1c(C(=O)OC)nc(Cl)c(F)c1N [Compound 2-12, 4-amino-6-chloro-3-ethenyl-5-fluoro-pyridine-2-carboxylic acid methyl ester]	100%	90%	100%	100%	100%	100%	80%	90%	80%	100%	100%	80%
